One compound from patent US8609067B2, “Method of measuring propulsion in lymphatic structures” (Board of Regents of the University of Texas System, priority 2006, dated 2013) can be followed below.

For the experiment, the system named is swine hindlimb vessel. Briefly: Staining of lymph vessels with HA-NIR molecule. Type of experiment: in vivo. How it is done: Four, two-month old, 60 lb white Yorkshire swine (K Bar Livestock, HC 69 Box 270 Sabinal, Tex.) were imaged using protocols which were approved by the Baylor College of Medicine Institutional Animal Care and Use Committee. The animals were anesthetized, intubated, and maintained with isoflurane. Animal body temperature was maintained at 100° F. using a warming blanket. At the end of the procedure, the animals were euthanized and lymph nodes resected with fluorescence guidance.
Continuous-wave optical imaging of the fluorescent NIR dyes was performed with a custom built intensified charged-coupled device (CCD). Reynolds J S, Troy T L, and Sevick-Muraca E M. Multipixel techniques for frequency-domain photon migration imaging. Biotechnol Prog 13: 669-680, 1997, incorporated herein by reference in its entirety for all purposes. Briefly, the device had three principal components: 1) a NIR-sensitive image intensifier (model FS9910C ITT Night Vision, Roanoke, Va.); 2) a 16-bit dynamic range, frame transfer CCD camera (Roper Scientific, Tucson, Ariz.); and 3) a 785-nm laser diode (Thorlabs) used to provide the excitation light for activating ICG and hyaluronan-NIR. The 785-nm laser diode beam was expanded by using a planoconvex lens and a holographic optical diffuser such that approximately 0.08 m^2 of the swine's body was illuminated. A 785-nm holographic notch band rejection filter (model HNPF-785.0-2.0, Kaiser Optical Systems, Ann Arbor, Mich.) and an 830-nm image quality bandpass filter (model 830.0-2.0, Andover, Salem, N.H.) were placed before the 28-mm Nikkor lens (Nikon) to selectively reject the excitation light and pass the emitted 830-nm wavelength. A total of 400 to 1,000 images with 512×512 resolution and 200 ms exposure time were acquired enabling near-real time visualization of ICG trafficking. For image registration, white light images were acquired by replacing the holographic and bandpass filters with a neutral density filter and illuminating the surface of the swine with a low-power lamp. […]

Each structure is given as a SMILES string.

For `CC1(C)C(/C=C/C=C/C=C/C=C2\N(CCCCS(=O)(=O)O)c3ccc4ccccc4c3C2(C)C)=[N+](CCCCS(=O)(=O)[O-])c2ccc3ccccc3c21` [ICG, indocyanine green], the “normalized fluorescent intensity in ROI as a function of time” value (image acquisition 6 min, swine leg lymph vessel) is “fluctuation and net reduction of intensity”. The propulsion of packets result (swine hindlimb vessel, 64 μM HA-NIR, 32 μM ICG) is given as “observed”. Besides, the “fluorescence intensity along the length of the vessel and with time” value (three-dimensional plots, swine lymph vessels) is “varies with time and length along the vessel”.
